Paper PMC7531004, “Discovery of gramicidin A analogues with altered activities by multidimensional screening of a one-bead-one-compound library” (Nature Communications, 2020)
Where a SMILES comes first, the peptide text is derived from it. [ ]: non-standard residue; d: D form. The star is where a group is joined. NHCH2CH2OH = OCCN*; For = O=C*

Experiments:
[1] = H+/Na+ transport assay of bead-derived peptides (one-point); assay type: biochemical; set-up: key: relative activity; mean of two control wells = 1.00; conditions: bead-derived peptide solution, EYPC/EYPG LUVs;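 also: relative to parent gramicidin A activity set to 1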
Outline: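 Miniaturized 96-well format. LUVs with entrapped pyranine (1.0 mM) were exposed to peptide for 30 min at RT. Intensities were expressed relative to full lysis by Triton X-100 and no treatment, with control-well mean = 1.00.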

[2] = tested on: Streptococcus pyogenes SSI-9; assay: Antibacterial activity assay of bead-derived peptides (three concentrations); assay type: cell-based; set-up: key: +++: inhibition by the 640-fold diluted peptide solution; ++: inhibition by the 160-fold diluted solution; +: inhibition by the 40-fold diluted solution; -: no inhibition; conditions: S. pyogenes, bead-derived peptide solution, three concentrations
Outline: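 First, each peptide stock was diluted 4- and 16-fold in DMSO; next, the three solutions were mixed with S. pyogenes SSI-9 suspension (2 × 10^5 CFU) in cation-adjusted Mueller Hinton Broth plus 5% laked horse blood; finally, plates stood 18 h at 37 °C before checking for grown-cell precipitation.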

[3] = cell viability/%
Outline: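 Peptide stocks diluted 250× in growth medium; P388 cells 1 × 10^4 cells/mL final; 37 °C, 5% CO2, 92 h. WST-1 + 1-methoxy PMS, 4 h, A415. Output: % viability.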

| SMILES | H+/Na+ transport activity normalized against the value of 1 (1.00) [1] | antibacterial activity [2] | viability [3] [%] |
| --- | --- | --- | --- |
| CNC(=O)C[C@@H](NC(=O)[C@@H](NC(=O)[C@@H](CC(C)C)NC(=O)[C@H](C)NC(=O)[C@@H](CC(C)C)NC(=O)[C@H](C)NC(=O)CNC(=O)[C@@H](NC=O)C(C)C)C(C)C)C(=O)N[C@@H](Cc1c[nH]c2ccccc12)C(=O)N[C@H](CC(C)C)C(=O)N[C@@H](Cc1c[nH]c2ccccc12)C(=O)N[C@H](CC(C)C)C(=O)N[C@@H](Cc1c[nH]c2ccccc12)C(=O)N[C@@H](C(=O)N[C@@H](Cc1c[nH]c2ccccc12)C(=O)NCCO)C(C)C [compound 4186] (For-VGA[dL]A[dL]V[dD](NHMe)W[dL]W[dL]W[dV]W-NHCH2CH2OH) | 1.44 | - | 98.7 |
| CC(C)C[C@@H](NC(=O)[C@H](C)NC(=O)CNC(=O)[C@@H](NC=O)C(C)C)C(=O)N[C@@H](C)C(=O)N[C@@H](C(=O)N[C@H](C(=O)N[C@H](CC(C)C)C(=O)N[C@@H](Cc1c[nH]c2ccccc12)C(=O)N[C@@H](C(=O)N[C@@H](Cc1c[nH]c2ccccc12)C(=O)N[C@@H](C(=O)N[C@@H](Cc1c[nH]c2ccccc12)C(=O)N[C@H](CC(C)C)C(=O)N[C@@H](Cc1c[nH]c2ccccc12)C(=O)NCCO)[C@H](C)O)C(C)C)C(C)C)C(C)C [compound 201] (For-VGA[dL]A[dV]V[dL]W[dV]W[dT]W[dL]W-NHCH2CH2OH) | 1.06 | - | 100 |
| CC(C)C[C@@H](NC(=O)[C@H](C)NC(=O)CNC(=O)[C@@H](NC=O)C(C)C)C(=O)N[C@@H](C)C(=O)N[C@H](CC(C)C)C(=O)N[C@H](C(=O)N[C@H](CC(C)C)C(=O)N[C@@H](Cc1c[nH]c2ccccc12)C(=O)N[C@H](CC(C)C)C(=O)N[C@@H](Cc1c[nH]c2ccccc12)C(=O)N[C@@H](C(=O)N[C@@H](Cc1c[nH]c2ccccc12)C(=O)N[C@H](CC(C)C)C(=O)N[C@@H](Cc1c[nH]c2ccccc12)C(=O)NCCO)[C@H](C)O)C(C)C [compound 1888] (For-VGA[dL]A[dL]V[dL]W[dL]W[dT]W[dL]W-NHCH2CH2OH) | 1.16 | - | 100 |
| CNC(=O)C[C@@H](NC(=O)[C@@H](NC(=O)[C@H](NC(=O)[C@H](C)NC(=O)[C@@H](CC(C)C)NC(=O)[C@H](C)NC(=O)CNC(=O)[C@@H](NC=O)C(C)C)C(C)C)C(C)C)C(=O)N[C@@H](Cc1c[nH]c2ccccc12)C(=O)N[C@H](CC(C)C)C(=O)N[C@@H](Cc1c[nH]c2ccccc12)C(=O)N[C@H](CC(C)C)C(=O)N[C@@H](Cc1c[nH]c2ccccc12)C(=O)N[C@H](CC(C)C)C(=O)N[C@@H](Cc1c[nH]c2ccccc12)C(=O)NCCO [compound 4143] (For-VGA[dL]A[dV]V[dD](NHMe)W[dL]W[dL]W[dL]W-NHCH2CH2OH) | 1.22 | - | 100 |
| CNC(=O)C[C@@H](NC(=O)[C@H](C)NC(=O)CNC(=O)[C@@H](NC=O)C(C)C)C(=O)N[C@@H](C)C(=O)N[C@@H](C(=O)N[C@H](C(=O)N[C@@H](C(=O)N[C@@H](Cc1c[nH]c2ccccc12)C(=O)N[C@H](CC(C)C)C(=O)N[C@@H](Cc1c[nH]c2ccccc12)C(=O)N[C@H](CC(C)C)C(=O)N[C@@H](Cc1c[nH]c2ccccc12)C(=O)N[C@H](CC(C)C)C(=O)N[C@@H](Cc1c[nH]c2ccccc12)C(=O)NCCO)C(C)C)C(C)C)C(C)C [compound 10673] (For-VGA[dD](NHMe)A[dV]V[dV]W[dL]W[dL]W[dL]W-NHCH2CH2OH) | 1.01 | - | 97.7 |
